Experimental data reported in US20220213174A1, “IVIG TREATMENTS FOR SUDDEN SONSORINEURAL HEARING LOSS” (InnoMed Technologies, Inc., priority 2021, published 2022).

Tests used:
[1] = test system: Hearing Loss, including Sudden Sensorineural Healing Loss; details: prednisolone 60 mg per day for 5 days then reduced, or 50 mg per day for 10 days; cited from earlier work
[2] = test system: Sudden Sensorineural Healing Loss; assay: Example 1: treatment of a patient suffering from hearing loss; format: in vivo, human; details: person; 60 mg/day prednisone therapy alone; two weeks
Protocol: The patient, a person was diagnosed by their doctor after claiming they are suffering from unexplained hearing loss. The patient's doctor diagnosed the patient as suffering from Sudden Sensorineural Healing Loss. […] Two weeks after administration, the patient is co-administered a single dose of IVIG at 2 g/kg and 60 mg prednisone and Sudden Sensorineural Healing Loss related symptoms […].

[3] = test system: Sudden Sensorineural Hearing Loss; assay: Example 2: treatment of a patient suffering from hearing loss; format: in vivo, human; details: person; 60 mg/day prednisone therapy alone for a month
Protocol: The patient, a person is diagnosed by their doctor as suffering from Sudden Sensorineural Hearing Loss. […] The patient is then administered IVIG at 2 g/kg and 60 mg prednisone. Within three weeks, the Sudden Sensorineural Hearing Loss is resolved by about 80%. The patient is then administered a second dose of IVIG at 2 g/kg and 60 mg. prednisone. Within two weeks, the patient is resolved by about 95%. A week later, the patient's Sudden Sensorineural Hearing Loss symptoms have disappeared and the patient presents as normal.

Question: Which “outcome and time to complete recovery in patients with Hearing Loss” value [1] does the source give for `C[C@]12C=CC(=O)C=C1CC[C@@H]1[C@@H]2[C@@H](O)C[C@@]2(C)[C@H]1CC[C@]2(O)C(=O)CO` [prednisolone] here?
Answer: improves outcome

Question: With `C[C@]12C=CC(=O)C=C1CC[C@@H]1[C@@H]2C(=O)C[C@@]2(C)[C@H]1CC[C@]2(O)C(=O)CO` [prednisone] as the compound, how does the “reduction in the symptoms they suffer” value [2] read?
Answer: no reduction

Question: What about the “resolution of Sudden Sensorineural Hearing Loss” value [3] of the same compound?
Answer: did not resolve

Question: With methylprednisone as the compound, how does the “outcome and time to complete recovery in patients with Hearing Loss” value [1] read?
Answer: improves outcome
